Two compounds from US4536592A, “2-Substituted prostaglandins” (G. D. Searle & Co., priority 1984, dated 1985) can be followed below.

The series can be described thus: Diarrheogenic activity test (rat, intragastric, all or none diarrhea assessment). It is filed as in vivo, Charles River rats. The note with it: doses 100 to 3000 microgram/kg. The method, then: Diarrhea is an undesirable side effect commonly associated with prostaglandins.
Groups of six adult male Charles River rats, weight range 180 to 200 grams are fasted for 24 hours prior to administering the test substance. The prostaglandin to be tested is administered intragastrically in iso-osmotic phosphate buffer at a volume of 10 ml/kg at doses ranging from 100 to 3000 microgram/kg. Control animals receive only the vehicle. The rats are placed in individual wire mesh cages and the trays lined with brown paper. Diarrhea is assessed at hourly intervals on an all or none basis for up to eight hours after administration of the prostaglandin. Diarrhea is defined as any loose or watery stool. ED50 value is assessed for each hourly diarrheogenic response.

With `CCCCC(C)(O)C/C=C/[C@H]1[C@H](O)CC(=O)[C@@H]1CCCCCC(C)C(=O)OC` (relative stereo) [Compound II], the “Rat 8 hour Diarrheogenic ED50” value was > 3.2 mg/kg.

With `CCCCC(C)(O)C/C=C/[C@H]1[C@H](O)CC(=O)[C@@H]1CCCCCCC(=O)OC` (relative stereo) [Compound I], the TD50 at 8 h (in vivo, po, read-out: Rat 8 hour Diarrheogenic ED50) was 0.366 mg/kg.
